# Experimental data from US20250302832A1, “PYRAZINE DERIVATIVES AND USES THEREOF” (FOGHORN THERAPEUTICS INC., priority 2022, published 2025).
# Experiments:
# HiBit-BRM fusion protein = biological target: T1, HiBit-BRM fusion protein (Homo sapiens, UniProt P51531); assay: HiBiT-BRM cell-based degradation assay (Nano-Glo HiBiT lytic detection, 24 h); conditions: HeLa cell line expressing HiBiT-BRM; for DC50: read-out: BRM HiBit Degradation IC50
# T1 construct: expressed in transfected cells
# In short: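 Luminescence from LgBiT complementation quantified remaining HiBiT-BRM in stably expressing HeLa cells after 24 h compound exposure (top final dose 30 μM, 3-fold, 10 points, duplicate). Degradation expressed as percent relative to DMSO and a 2 μM reference degrader.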
# [1] = biological target: T2, HiBit-BRG1 fusion protein (Homo sapiens, UniProt P51532); assay: HiBiT-BRG1 cell-based degradation assay (Nano-Glo HiBiT lytic detection, 24 h); conditions: HeLa cell line expressing HiBit-BRG1 and LgBit; for Dmax: read-out: BRG1 HiBit Degradation Maximum (%); for DC50: read-out: BRMG1 HiBit Degradation IC50
# T2 construct: expressed in transfected cells
# In short: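 Luminescence from HiBiT/LgBiT complementation after lytic detection reagent was read following 24 h compound exposure of HeLa cells stably carrying HiBiT-BRG1 plus LgBiT (5000 cells/well). Signal scaled to % degradation using DMSO-treated cells as 0% and cells given 2 μM known BRM/BRG1 degrader as 100%.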
# T2 sequence (P51532 whole entry, the tested form may be a part): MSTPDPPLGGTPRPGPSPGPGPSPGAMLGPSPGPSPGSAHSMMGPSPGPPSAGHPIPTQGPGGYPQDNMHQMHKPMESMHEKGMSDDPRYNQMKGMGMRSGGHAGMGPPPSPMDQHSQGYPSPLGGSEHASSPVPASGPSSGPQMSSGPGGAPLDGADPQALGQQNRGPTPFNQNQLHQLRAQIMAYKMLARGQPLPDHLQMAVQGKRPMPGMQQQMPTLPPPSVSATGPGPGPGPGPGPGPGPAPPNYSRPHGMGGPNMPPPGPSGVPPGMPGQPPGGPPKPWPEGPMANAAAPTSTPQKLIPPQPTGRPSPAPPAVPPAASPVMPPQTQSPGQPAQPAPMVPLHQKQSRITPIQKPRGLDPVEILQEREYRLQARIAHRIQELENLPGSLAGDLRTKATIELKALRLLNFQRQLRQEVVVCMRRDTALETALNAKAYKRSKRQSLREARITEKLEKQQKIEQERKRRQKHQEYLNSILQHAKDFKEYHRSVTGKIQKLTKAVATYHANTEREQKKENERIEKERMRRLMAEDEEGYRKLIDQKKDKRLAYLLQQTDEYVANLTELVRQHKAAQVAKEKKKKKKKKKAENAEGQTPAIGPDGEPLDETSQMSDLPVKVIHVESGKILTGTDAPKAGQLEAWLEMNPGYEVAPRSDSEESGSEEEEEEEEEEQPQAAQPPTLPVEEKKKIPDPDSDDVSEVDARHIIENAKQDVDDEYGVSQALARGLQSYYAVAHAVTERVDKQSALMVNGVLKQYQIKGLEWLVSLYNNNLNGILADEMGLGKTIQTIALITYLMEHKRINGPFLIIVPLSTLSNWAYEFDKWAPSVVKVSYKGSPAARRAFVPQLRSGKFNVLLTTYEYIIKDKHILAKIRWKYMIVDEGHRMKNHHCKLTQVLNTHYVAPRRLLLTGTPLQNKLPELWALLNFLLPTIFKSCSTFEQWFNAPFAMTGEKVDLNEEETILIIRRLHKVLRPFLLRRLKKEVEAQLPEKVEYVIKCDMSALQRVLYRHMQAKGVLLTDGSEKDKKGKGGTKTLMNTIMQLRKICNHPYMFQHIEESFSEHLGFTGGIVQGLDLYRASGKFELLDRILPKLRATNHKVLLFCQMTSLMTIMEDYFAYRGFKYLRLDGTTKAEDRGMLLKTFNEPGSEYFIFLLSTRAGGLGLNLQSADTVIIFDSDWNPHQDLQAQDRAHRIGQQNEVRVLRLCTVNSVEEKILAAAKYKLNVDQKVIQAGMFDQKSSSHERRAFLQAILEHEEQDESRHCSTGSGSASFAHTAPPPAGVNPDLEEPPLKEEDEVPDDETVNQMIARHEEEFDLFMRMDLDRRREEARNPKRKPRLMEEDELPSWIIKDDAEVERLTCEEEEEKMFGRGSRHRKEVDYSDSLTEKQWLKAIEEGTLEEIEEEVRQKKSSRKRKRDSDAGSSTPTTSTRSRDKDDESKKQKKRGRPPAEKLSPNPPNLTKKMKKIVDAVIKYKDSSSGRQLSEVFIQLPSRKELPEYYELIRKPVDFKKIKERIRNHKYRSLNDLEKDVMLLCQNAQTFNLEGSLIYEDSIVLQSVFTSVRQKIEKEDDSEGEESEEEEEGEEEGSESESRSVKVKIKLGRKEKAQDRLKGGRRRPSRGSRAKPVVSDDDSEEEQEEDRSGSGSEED
# T1 sequence (P51531 whole entry, the tested form may be a part): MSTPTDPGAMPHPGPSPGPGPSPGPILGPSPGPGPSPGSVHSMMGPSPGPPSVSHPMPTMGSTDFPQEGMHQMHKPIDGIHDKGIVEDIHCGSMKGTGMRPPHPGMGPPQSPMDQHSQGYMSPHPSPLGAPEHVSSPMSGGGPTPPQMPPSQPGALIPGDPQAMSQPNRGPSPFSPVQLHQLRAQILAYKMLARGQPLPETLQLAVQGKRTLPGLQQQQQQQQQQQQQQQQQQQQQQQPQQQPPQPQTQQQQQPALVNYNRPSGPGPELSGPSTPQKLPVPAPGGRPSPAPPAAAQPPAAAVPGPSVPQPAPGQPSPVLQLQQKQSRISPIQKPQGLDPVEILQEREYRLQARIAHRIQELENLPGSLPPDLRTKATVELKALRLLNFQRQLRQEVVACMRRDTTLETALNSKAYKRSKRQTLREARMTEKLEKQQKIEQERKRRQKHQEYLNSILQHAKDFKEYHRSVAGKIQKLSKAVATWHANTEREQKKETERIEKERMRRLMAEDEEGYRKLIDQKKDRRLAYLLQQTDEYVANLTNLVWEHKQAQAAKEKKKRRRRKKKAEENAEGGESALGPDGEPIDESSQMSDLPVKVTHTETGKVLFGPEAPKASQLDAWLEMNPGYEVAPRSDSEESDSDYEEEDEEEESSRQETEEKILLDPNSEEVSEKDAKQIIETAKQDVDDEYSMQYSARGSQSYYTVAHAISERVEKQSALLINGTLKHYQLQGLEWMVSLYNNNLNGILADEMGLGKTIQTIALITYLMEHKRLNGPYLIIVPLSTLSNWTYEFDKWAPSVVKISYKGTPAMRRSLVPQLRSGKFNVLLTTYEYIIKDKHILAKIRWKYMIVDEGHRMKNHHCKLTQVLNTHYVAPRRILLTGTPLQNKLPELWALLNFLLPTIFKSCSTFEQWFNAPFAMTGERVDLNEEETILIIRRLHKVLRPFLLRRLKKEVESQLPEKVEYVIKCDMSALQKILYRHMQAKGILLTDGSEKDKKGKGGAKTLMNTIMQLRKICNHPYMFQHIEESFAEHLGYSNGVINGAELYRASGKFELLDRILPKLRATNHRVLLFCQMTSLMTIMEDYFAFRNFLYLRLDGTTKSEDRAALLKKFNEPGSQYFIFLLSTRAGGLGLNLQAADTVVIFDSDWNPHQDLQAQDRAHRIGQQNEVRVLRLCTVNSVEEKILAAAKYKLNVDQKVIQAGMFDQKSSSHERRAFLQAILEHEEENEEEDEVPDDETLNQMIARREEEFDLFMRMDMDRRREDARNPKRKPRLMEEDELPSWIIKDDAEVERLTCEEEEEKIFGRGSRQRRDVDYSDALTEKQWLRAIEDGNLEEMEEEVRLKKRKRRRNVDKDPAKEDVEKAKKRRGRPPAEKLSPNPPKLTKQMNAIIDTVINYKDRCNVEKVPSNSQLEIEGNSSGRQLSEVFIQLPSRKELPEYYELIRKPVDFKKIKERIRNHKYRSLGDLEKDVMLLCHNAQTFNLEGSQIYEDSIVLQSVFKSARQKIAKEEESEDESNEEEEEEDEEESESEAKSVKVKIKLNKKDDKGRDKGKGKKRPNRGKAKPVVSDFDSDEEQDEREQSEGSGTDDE
Compound,DC50 (HiBit-BRM fusion protein) [µM],Dmax [1] [%],DC50 [1] [µM],BRM HiBit Degradation Maximum (%) (HiBit-BRM fusion protein)
"Cc1ncsc1-c1ccc([C@H](C)NC(=O)[C@@H]2C[C@@H](O)CN2C(=O)[C@@H](c2cc(N3CCC(c4cc5nnc(-c6ccccc6O)cc5n4C4CC4)CC3)no2)C(C)C)cc1 [Compound 76, (2S,4R)-1-((R)-2-(3-(4-(5-cyclopropyl-3-(2-hydroxyphenyl)-5H-pyrrolo[3,2-c]pyridazin-6-yl)piperidin-1-yl)isoxazol-5-yl)-3-methylbutanoyl)-4-hydroxy-N-((S)-1-(4-(4-methylthiazol-5-yl)phenyl)ethyl)pyrrolidine-2-carboxamide]",< 0.01,< 50,–,A (“A” indicates maximum degradation ≥75%)
"Cc1ncsc1-c1ccc([C@H](C)NC(=O)[C@@H]2C[C@@H](O)CN2C(=O)[C@@H](c2cc(N3CC4(CC(c5cc6nnc(-c7ccccc7O)cc6n5CC5CC5)C4)C3)no2)C(C)C)cc1 [Compound 77, (2S,4R)-1-((R)-2-(3-(6-(5-(cyclopropylmethyl)-3-(2-hydroxyphenyl)-5H-pyrrolo[3,2-c]pyridazin-6-yl)-2-azaspiro[3.3]heptan-2-yl)isoxazol-5-yl)-3-methylbutanoyl)-4-hydroxy-N-((S)-1-(4-(4-methylthiazol-5-yl)phenyl)ethyl)pyrrolidine-2-carboxamide]",< 0.01,< 50,–,A (“A” indicates maximum degradation ≥75%)
"Cc1ncsc1-c1ccc([C@H](C)NC(=O)[C@@H]2C[C@@H](O)CN2C(=O)[C@@H](c2cc(N3CC[C@H](c4cc5nnc(-c6ccccc6O)cc5n4C4(C)CC4)C3)no2)C(C)C)cc1 [Compound 80, (2S,4R)-4-hydroxy-1-((R)-2-(3-((S)-3-(3-(2-hydroxyphenyl)-5-(1-methylcyclopropyl)-5H-pyrrolo[3,2-c]pyridazin-6-yl)pyrrolidin-1-yl)isoxazol-5-yl)-3-methylbutanoyl)-N-((S)-1-(4-(4-methylthiazol-5-yl)phenyl)ethyl)pyrrolidine-2-carboxamide]",> 0.01,> 75,> 0.01,A (“A” indicates maximum degradation ≥75%)
"Cc1ncsc1-c1ccc([C@H](C)NC(=O)[C@@H]2C[C@@H](O)CN2C(=O)[C@@H](c2cc(-c3ccnc(N4CC[C@@H](c5cc6nnc(-c7ccccc7O)cc6n5C5CC5)C4)c3)no2)C(C)C)cc1 [Compound 82, (2S,4R)-1-[(2R)-2-(3-{2-[(3R)-3-[5-cyclopropyl-3-(2-hydroxyphenyl)pyrrolo [3,2-c]pyridazin-6-yl]pyrrolidin-1-yl]pyridin-4-yl}-1,2-oxazol-5-yl)-3-methylbutanoyl]-4-hydroxy-N-[(1S)-1-[4-(4-methyl-1,3-thiazol-5-yl)phenyl]ethyl]pyrrolidine-2-carboxamide]",< 0.01,> 50,> 0.01,A (“A” indicates maximum degradation ≥75%)
"Cc1ncsc1-c1ccc(CNC(=O)[C@@H]2C[C@@H](O)CN2C(=O)[C@@H](c2cc(N3CCC4(CC3)CC(c3cc5nnc(-c6ccccc6O)cc5n3C3CC3)C4)no2)C(C)C)cc1 [Compound 84, (2S,4R)-1-((R)-2-(3-(2-(5-cyclopropyl-3-(2-hydroxyphenyl)-5H-pyrrolo[3,2-c]pyridazin-6-yl)-7-azaspiro[3.5]nonan-7-yl)isoxazol-5-yl)-3-methylbutanoyl)-4-hydroxy-N-(4-(4-methylthiazol-5-yl)benzyl)pyrrolidine-2-carboxamide]",< 0.01,< 50,–,A (“A” indicates maximum degradation ≥75%)
"Cc1ncsc1-c1ccc([C@H](C)NC(=O)[C@@H]2C[C@@H](O)CN2C(=O)[C@@H](c2cc(N3CCC4(CCC(c5cc6nnc(-c7ccccc7O)cc6n5C5CC5)CC4)CC3)no2)C(C)C)cc1 [Compound 85, (2S,4R)-1-((R)-2-(3-(9-(5-cyclopropyl-3-(2-hydroxyphenyl)-5H-pyrrolo[3,2-c]pyridazin-6-yl)-3-azaspiro[5.5]undecan-3-yl)isoxazol-5-yl)-3-methylbutanoyl)-4-hydroxy-N-((S)-1-(4-(4-methylthiazol-5-yl)phenyl)ethyl)pyrrolidine-2-carboxamide]",< 0.01,> 75,> 0.01,A (“A” indicates maximum degradation ≥75%)

# Second part, led by results:
DC50 (HiBit-BRM fusion protein) [µM],Dmax [1] [%],DC50 [1] [µM],Compound,BRM HiBit Degradation Maximum (%) (HiBit-BRM fusion protein)
< 0.01,< 50,–,"Cc1ncsc1-c1ccc([C@H](C)NC(=O)[C@@H]2C[C@@H](O)CN2C(=O)[C@@H](c2cc(N3CC4(CC(c5cc6nnc(-c7ccccc7O)cc6n5C5CC5)C4)C3)no2)C(C)C)cc1 [Compound 78, (2S,4R)-1-((R)-2-(3-(6-(5-cyclopropyl-3-(2-hydroxyphenyl)-5H-pyrrolo[3,2-c]pyridazin-6-yl)-2-azaspiro[3.3]heptan-2-yl)isoxazol-5-yl)-3-methylbutanoyl)-4-hydroxy-N-((S)-1-(4-(4-methylthiazol-5-yl)phenyl)ethyl)pyrrolidine-2-carboxamide]",A (“A” indicates maximum degradation ≥75%)
> 0.01,< 50,–,"Cc1ncsc1-c1ccc([C@H](C)NC(=O)[C@@H]2C[C@@H](O)CN2C(=O)[C@@H](c2cc(N3CC[C@H](c4cc5nnc(-c6ccccc6O)cc5n4C4CCC4)C3)no2)C(C)C)cc1 [Compound 79, (2S,4R)-1-((R)-2-(3-((S)-3-(5-cyclobutyl-3-(2-hydroxyphenyl)-5H-pyrrolo[3,2-c]pyridazin-6-yl)pyrrolidin-1-yl)isoxazol-5-yl)-3-methylbutanoyl)-4-hydroxy-N-((S)-1-(4-(4-methylthiazol-5-yl)phenyl)ethyl)pyrrolidine-2-carboxamide]",A (“A” indicates maximum degradation ≥75%)
< 0.01,> 75,< 0.01,"Cc1ncsc1-c1ccc([C@H](C)NC(=O)[C@@H]2C[C@@H](O)CN2C(=O)[C@@H](c2cc(N3CC[C@@H](c4cc5nnc(-c6ccccc6O)cc5n4C4(C)CC4)C3)no2)C(C)C)cc1 [Compound 81, (2S,4R)-4-hydroxy-1-((R)-2-(3-((R)-3-(3-(2-hydroxyphenyl)-5-(1-methylcyclopropyl)-5H-pyrrolo[3,2-c]pyridazin-6-yl)pyrrolidin-1-yl)isoxazol-5-yl)-3-methylbutanoyl)-N-((S)-1-(4-(4-methylthiazol-5-yl)phenyl)ethyl)pyrrolidine-2-carboxamide]",A (“A” indicates maximum degradation ≥75%)
< 0.01,< 50,–,"Cc1ncsc1-c1ccc([C@H](C)NC(=O)[C@@H]2C[C@@H](O)CN2C(=O)[C@@H](c2cc(N3CCC4(CC3)CC(c3cc5nnc(-c6ccccc6O)cc5n3CC3CC3)C4)no2)C(C)C)cc1 [Compound 86, (2S,4R)-1-((R)-2-(3-(2-(5-(cyclopropylmethyl)-3-(2-hydroxyphenyl)-5H-pyrrolo[3,2-c]pyridazin-6-yl)-7-azaspiro[3.5]nonan-7-yl)isoxazol-5-yl)-3-methylbutanoyl)-4-hydroxy-N-((S)-1-(4-(4-methylthiazol-5-yl)phenyl)ethyl)pyrrolidine-2-carboxamide]",A (“A” indicates maximum degradation ≥75%)
< 0.01,> 75,< 0.01,"Cc1ncsc1-c1ccc([C@H](C)NC(=O)[C@@H]2C[C@@H](O)CN2C(=O)[C@@H](c2cc(N3CC4(CCC(c5cc6nnc(-c7ccccc7O)cc6n5C5CC5)CC4)C3)no2)C(C)C)cc1 [Compound 87, (2S,4R)-1-((R)-2-(3-(7-(5-cyclopropyl-3-(2-hydroxyphenyl)-5H-pyrrolo[3,2-c]pyridazin-6-yl)-2-azaspiro[3.5]nonan-2-yl)isoxazol-5-yl)-3-methylbutanoyl)-4-hydroxy-N-((S)-1-(4-(4-methylthiazol-5-yl)phenyl)ethyl)pyrrolidine-2-carboxamide]",A (“A” indicates maximum degradation ≥75%)
< 0.01,> 75,> 0.01,"Cc1ncsc1-c1ccc([C@H](C)NC(=O)[C@@H]2C[C@@H](O)CN2C(=O)[C@@H](c2cc(N3CC[C@@H](c4cc5nnc(-c6ccccc6O)cc5n4C4CCC4)C3)no2)C(C)C)cc1 [Compound 88, (2S,4R)-1-((R)-2-(3-((R)-3-(5-cyclobutyl-3-(2-hydroxyphenyl)-5H-pyrrolo[3,2-c]pyridazin-6-yl)pyrrolidin-1-yl)isoxazol-5-yl)-3-methylbutanoyl)-4-hydroxy-N-((S)-1-(4-(4-methylthiazol-5-yl)phenyl)ethyl)pyrrolidine-2-carboxamide]",A (“A” indicates maximum degradation ≥75%)
> 0.01,> 50,> 0.01,"Cc1ncsc1-c1ccc(CNC(=O)[C@@H]2C[C@@H](O)CN2C(=O)[C@@H](c2cc(-c3cnc(N4CC[C@@H](c5cc6nnc(-c7ccccc7O)cc6n5C5CC5)C4)nc3)no2)C(C)C)cc1 [Compound 89, (2S,4R)-1-((R)-2-(3-(2-((R)-3-(5-cyclopropyl-3-(2-hydroxyphenyl)-5H-pyrrolo[3,2-c]pyridazin-6-yl)pyrrolidin-1-yl)pyrimidin-5-yl)isoxazol-5-yl)-3-methylbutanoyl)-4-hydroxy-N-(4-(4-methylthiazol-5-yl)benzyl)pyrrolidine-2-carboxamide]",A (“A” indicates maximum degradation ≥75%)
